Where a name gives a salt, the structure may show the parent alone.
Assays:
[1] = Compatibility with standard intravenous solutions (precipitate formation); format: physicochemical; conditions: solutions and mixes with standard intravenous solutions (dextrose, saline, Ringers lactate)
Text: Supplementary active ingredients can also be incorporated into the formulations of formula I and its salts. The formula I and its salts, and particularly fosphenytoin sodium, can be and is formulated so as to be compatible with the commonly used intravenous fluids including solutions based on dextrose, […] or 0.9% saline as well as more complicated solutions including/such as Ringers lactate, and the like.

[2] = tested on: middle cerebral artery occlusion (MCAO) model; test: Middle cerebral artery occlusion (MCAO) model, infarct area and volume by TTC stain; format: in vivo, male F-344 rats; conditions: 37 mg/kg IV 30 minutes and 24 hours after occlusion
Text: The model depends on a surgical procedure which is a modification of that originally proposed by A. Tamura, et al, "Focal Cerebral Ischemia in the Rat: Description of Technique and Early Neuropathological Consequences Following Middle Cerebral Artery Occlusion," J. Cerb. Blood Flow Metab. Vol. 1, pp. 53-60 and is similar to the methods described by Duverger and MacKenzie, "The Quantification of Cerebral Infarction Following Local Ischemia in the Rat: Influence of Strain, Arterial Pressure, Blood Glucose Concentration and Age", J. Cerb. Blood Flow Metab., Vol. 8, pp. 449-461 and S. Brint, et al, "Focal Brain Ischemia in the Rat: Methods for Reproducible Neocortical Infarction Using Tandem Occlusion of the Distal Middle Cerebral and Ipsilateral Common Carotid Arteries", J. Cereb. Blood Flow Metab., Vol. 8, pp. 474-485.
Generally, male F-344 rats weighing 300-350 g are anesthetized in 2% halothane in room air. The right femoral vein is cannulated and the tubing led subcutaneously to an exit behind the neck to allow intravenous (IV) drug injection. The left common carotid is permanently occluded with a 6-0 silk ligature. The left middle cerebral artery (MCA) is exposed through a 2-mm burr hole drilled 1-2 mm rostral to the fusion of the zygomatic arch with the squamosal bone. The dura is cut, the MCA lifted off the surface of the brain, electrocauterized, and cut. The wound margins are sutured shut and the anesthesia stopped.
The stable pharmaceutical composition is used for the assay or a solution for the assay may be prepared as follows: The hydrated fosphenytoin sodium (2.25 H₂O equivalent per mole) is dissolved in saline (pH = 7) at a concentration of 37 mg/mL and administered at 1 mL/kg. This dose of 37 mg/kg is equal to 30 mg/kg of the free base of fosphenytoin sodium. In vivo fosphenytoin sodium or the phenytoin prodrug undergoes a phosphate ester cleavage followed by a dehydroxymethylation to yield the free base of phenytoin. The dose administered is equivalent to 21 mg/kg of the free base of phenytoin.
This solution is then administered intravenously (IV) 30 minutes and 24 hours after occlusion to groups of 12 animals each. Forty-eight hours following occlusion rats are anesthetized with ketamine (150 mg/kg, IP), decapitated, the brains rapidly removed, and placed on ice. With the aid of a brain mold (Activational Systems), the brain is sliced into four 2-mm sections: one section anterior (ANT) to the MCA and three sections posterior (ANT-MED, POST-MED, and POST) to the MCA. The sections are then placed for 30 minutes in a 2% solution of 2,3,5 triphenyltetrazolium chloride (TTC) in saline. The brains are stored in 10% neutral buffered […] for analysis.
The brains are coded and the analysis is performed blinded. The area of infarction in each section is outlined with the aid of a morphometric analysis program (Bioquant IV, R & M Biometrics). The TTC stain is converted into a red marker in live mitochondria, while the infarcted area remains white. The total volume of infarction is calculated from the areas of the four sections assuming three truncated cones. The mean area for each section and the mean total volume are calculated; vehicle and drug treatment are compared using the Student's t-test.

[3] = section posterior to the MCA, forty-eight hours following occlusion, mean ± standard deviation, N = 12

## O=C1NC(c2ccccc2)(c2ccccc2)C(=O)N1COP(=O)(O)O [Disodium Salt of Prophenytoin, 3-(hydroxymethyl)-5,5-diphenylhydantoin disodium phosphate ester]
[1]
  precipitate formation in standard intravenous solutions: do not form precipitates
[2]; area of infarction vs Vehicle, Probability 0.006
  % Change, POST: -71.56%
[2]; area of infarction vs Vehicle, Probability 0.008
  % Change, POS-MED: -57.10%
[2]; area of infarction vs Vehicle, Probability 0.049
  % Change, ANT-MED: -22.82%
[2]; area of infarction vs Vehicle, Probability 0.160
  % Change, ANT: -18.58%
[2]; calculated from the areas of the four sections, forty-eight hours following occlusion, mean ± standard deviation, N = 12
  TOTAL VOLUME of infarction: 43.21 ±21.85
[2]; section anterior to the MCA, forty-eight hours following occlusion, mean ± standard deviation, N = 12
  area of infarction, ANT: 9.03 ± 2.91
[2]; [3]
  area of infarction, ANT-MED: 11.23 ± 2.95
  area of infarction, POS-MED: 5.23 ± 5.44
  area of infarction, POST: 2.97 ± 4.39
[2]; total volume of infarction vs Vehicle, Probability 0.010
  % Change, TOTAL VOLUME: -42.07%
